The source made the active and inactive calls. How the calls were made is not given here.
Each molecule was assayed against UPR counterscreen luciferase reporter, luminescence (assay: activators in UPR counterscreen luciferase reporter, dose response, counter-screen for adaptive UPR activator project, cell-based, luminescence (AID 489027)).

How did the EC50 turn out when N#Cc1ccccc1NC(=O)COc1c(Br)cc(Br)c2cccnc12 was run?
Its EC50 is “inactive”.

COc1ccc(C(=O)Oc2cc3c4c(c2)C(C)=CC(C)(C)N4C(=O)C3=O)cc1OC was tested. Which EC50 did it give?
Its EC50 is “inactive”.

With CCC(=O)Nc1nnc(SCC(=O)c2ccc3c(c2)Cc2ccccc2-3)s1 as the molecule, how does the EC50 read?
Its EC50 is “inactive”.

For Cc1ccc(S(=O)(=O)N(CC(=O)N/N=C/c2ccc(F)cc2)c2cccc3cccnc23)cc1, which EC50 is on record?
The EC50 was 1.92 µM.

With C=CCN=C1S/C(=C/c2cccc([N+](=O)[O-])c2)C(=O)N1CC=C as the molecule, how does the EC50 read?
Its EC50 is “inactive”.

Cc1nc(NC(=O)c2cc3c(C)nn(-c4ccccc4)c3s2)sc1C(=O)Nc1ccccc1 was tested. Which EC50 did it give?
The EC50 was “inactive”.

With COc1cc(NC(=O)c2cncc(-c3ccc(C#N)cc3)c2)cc(C(=O)Nc2cccc(C(F)(F)F)c2)c1 as the molecule, how does the EC50 read?
The EC50 was “inactive”.

With Cc1cc(NC(=O)CSc2nc3cc(Cl)ccc3c(=O)n2Cc2ccco2)no1 as the molecule, how does the EC50 read?
The EC50 was > 80 µM (inactive).

With O=C(C[C@H]1C[C@H](C(=O)N2CCCCC2)[C@@]2(CCc3ccccc3)c3[nH]c4ccc(Cl)cc4c3CCN2C1=O)NCCC1=CCCCC1 as the molecule, how does the EC50 read?
Its EC50 is “inactive”.

Which EC50 does the source give for Cc1ccc(Cl)cc1N1CCN(Cc2nc3c(c(=O)[nH]c(=O)n3C)n2CCc2ccccc2)CC1 here?
The EC50 was 16.7 µM.

How did the EC50 turn out when CCCOC(=O)c1cccc(Nc2nc(-c3cccnc3)nc3ccccc23)c1 was run?
The EC50 was > 80 µM (inactive).

With COc1ccc2nc(C)cc(SCC(=O)N/N=C/c3cccc4ccccc34)c2c1 as the molecule, how does the EC50 read?
The EC50 was “inactive”.

For COc1ccc(N=c2oc3ccc(OC)cc3cc2-c2nc3ccccc3[nH]2)cc1, which EC50 is on record?
Its EC50 is 6.79 µM.

For Cc1ccc2c(c1)C(c1ccc([N+](=O)[O-])cc1)=NNC(c1ccc(Br)cc1)=N2, which EC50 is on record?
The EC50 was > 80 µM (inactive).

COc1ccc(C2CC(c3c(-c4ccccc4)c4cc(Cl)ccc4[nH]c3=O)=NN2S(C)(=O)=O)cc1 (configuration not stated) was tested. Which EC50 did it give?
The EC50 was > 80 µM (inactive).

Which EC50 does the source give for CN(C)CCCNC(=O)c1ccc(-c2nc(-c3ccc(Cl)cc3)cs2)cc1 here?
Its EC50 is 9.53 µM.

Which EC50 does the source give for Cc1ccc2nc(-c3ccc(NC(=S)NC4CC(C)(C)NC(C)(C)C4)cc3)sc2c1 here?
The EC50 was 9.04 µM.

With CCC(=O)Nc1ccc(-c2cc(-c3ccccc3)nc(-c3ccc(NC(=O)CC)cc3)n2)cc1 as the molecule, how does the EC50 read?
Its EC50 is > 80 µM (inactive).

Cn1c(/C=C/c2ccc(Cl)cc2Cl)c([N+](=O)[O-])c(=O)n(C)c1=O was tested. Which EC50 did it give?
The EC50 was 12.8 µM.

With N#C/C(=C\c1ccc(OCc2ccccc2)cc1)C(=O)Nc1nc2c(s1)CCN(Cc1ccccc1)C2 as the molecule, how does the EC50 read?
Its EC50 is 13.3 µM.

With O=C(Nc1ccc(Oc2ccc(NC(=O)Nc3ccccc3Cl)cc2)cc1)Nc1ccccc1Cl as the molecule, how does the EC50 read?
Its EC50 is > 80 µM (inactive).

With O=C(Nc1cccc(-c2nc3cccnc3s2)c1)C1c2ccccc2Oc2ccccc21 as the molecule, how does the EC50 read?
Its EC50 is 4.35 µM.

How did the EC50 turn out when CCN(CC)c1ccc(-c2nn3c(-c4ccccc4OC)nnc3s2)cc1 was run?
The EC50 was “inactive”.

Which EC50 does the source give for Cc1ccc(CNC(=O)c2ccc3c(=O)n4c(-c5ccc(C)cc5)csc4nc3c2)cc1 here?
Its EC50 is > 80 µM (inactive).

Nc1nc(SCc2ccc(Cl)cc2Cl)nc2nc3c(cc12)CCCC3 was tested. Which EC50 did it give?
The EC50 was > 80 µM (inactive).

Which EC50 does the source give for O=C(NCC1CC1)c1cccc2c1C(=O)c1ccc(-c3ccc(OC(F)(F)F)cc3)cc1S2(=O)=O here?
Its EC50 is > 80 µM (inactive).

For Cc1cccn2c(=O)c3cc(C(=O)NC4CCCCCC4)sc3nc12, which EC50 is on record?
The EC50 was > 80 µM (inactive).

COc1cc([N+](=O)[O-])cc(/C=N/NC(=O)c2ccc(NC(=O)c3ccc(C)cc3)cc2)c1O was tested. Which EC50 did it give?
The EC50 was “inactive”.

With O=C1c2cccc3cc(Br)cc(c23)C(=O)N1Nc1ccc(Br)cc1 as the molecule, how does the EC50 read?
Its EC50 is “inactive”.

C=CCn1c(O)c(C2=c3ccccc3=NC2=O)sc1=Nc1ccc(O)cc1 was tested. Which EC50 did it give?
The EC50 was 18.3 µM.

How did the EC50 turn out when O=C(NC(=S)Nc1ccc(NC(=O)c2cccs2)cc1)c1cc2ccccc2o1 was run?
Its EC50 is “inactive”.

Which EC50 does the source give for Clc1ccc(-c2ccc(/C=N/Nc3nncc(-c4ccccc4)n3)o2)cc1 here?
The EC50 was 13.6 µM.

With O=C(Nc1ccc(Cl)cc1)Nc1ccccc1Sc1ncc([N+](=O)[O-])s1 as the molecule, how does the EC50 read?
The EC50 was “inactive”.

How did the EC50 turn out when COc1cc(NC(=O)c2ccco2)c(C(=O)OCC(=O)c2c[nH]c3ccccc23)cc1OC was run?
The EC50 was > 80 µM (inactive).

How did the EC50 turn out when Cc1sc(NC(=O)c2cc(-c3ccc(Cl)cc3)nc3ccccc23)c(C(N)=O)c1C was run?
Its EC50 is > 80 µM (inactive).

Which EC50 does the source give for Oc1cccc2ccc(/C=C/c3ccc(Br)s3)nc12 here?
The EC50 was “inactive”.

How did the EC50 turn out when Cc1cc(NC(=O)c2cc(-c3ccccn3)nc3ccc(Br)cc23)no1 was run?
Its EC50 is > 80 µM (inactive).

For Brc1ccc2c(c1)C(c1ccc(N3CCOCC3)cc1)=NNC(c1cccs1)=N2, which EC50 is on record?
Its EC50 is “inactive”.

Which EC50 does the source give for COc1ccc(NC(=O)c2sc3nc(N4CCOCC4)c4c(c3c2N)CC(C)(C)OC4)c(OC)c1 here?
Its EC50 is 19.3 µM.

How did the EC50 turn out when CC1CCN(Cc2c(C(=O)N/N=C/c3ccc(C(C)C)cc3)nnn2-c2nonc2N)CC1 was run?
The EC50 was “inactive”.

How did the EC50 turn out when O=C(CSc1nc2ccccc2c(=O)n1-c1ccccc1)N1CCc2ccccc21 was run?
Its EC50 is “inactive”.

How did the EC50 turn out when Clc1ccc(C2=Nn3c(nnc3-c3cc(-c4ccccc4)n[nH]3)SC2)cc1 was run?
The EC50 was 12.1 µM.

How did the EC50 turn out when COc1ccc(C(=O)O/N=C/c2c(C(F)(F)F)nn(C)c2SCc2ccccc2Cl)cc1 was run?
Its EC50 is “inactive”.

For COc1cccc2sc(N3CCN(c4nc5ccccc5s4)CC3)nc12, which EC50 is on record?
The EC50 was 16.8 µM.

With O=C(Nc1ccc([N+](=O)[O-])cc1)C(Cc1ccccc1)N1C(=O)c2cccc3cccc(c23)C1=O (configuration not stated) as the molecule, how does the EC50 read?
The EC50 was “inactive”.

With O=C1NC(=O)C(=Cc2cn(CCOc3ccc4c(c3)OCO4)c3ccccc23)C(=O)N1 as the molecule, how does the EC50 read?
The EC50 was 18.5 µM.

Which EC50 does the source give for CCOC(=O)C1=C(C)N=C2SC(C(=O)OC)=CC(=O)N2C1c1ccc(F)cc1 (configuration not stated) here?
Its EC50 is > 80 µM (inactive).
